In patent US5204311A, “Ethanediimidic acid bis[(arylalkylidene)hydrazide] color-formers” (Minnesota Mining and Manufacturing Company, priority 1991, dated 1993):

Experiments:
[1] = Solubility in capsule fill solvents; assay type: physicochemical
Description: The encapsulation process requires the color-forming ligand be dissolved in a solvent or mixed solvents, because of the nature of the procedure. Formation of a microcapsule shell as by condensation of urea or melamine with an aldehyde such as formaldehyde or mixtures of aldehydes to form the capsule shell is carried out in an acidic aqueous medium and the color-former solution must be insoluble and unreactive to these reagents for the encapsulation to proceed. Solvents commonly used include tributyl phosphate, diethyl phthalate, and cyclohexane. […] As mentioned above, solubility of yellow color-formers exemplified by structure I in nonaqueous solvents such as those used in the encapsulation process may be increased by substituting alkyl, aryl, aralkyl, alkenyl, or such groups for the hydrogens on the various positions available in the structure I above.
This color observed on the CF sheet was yellow. […] Solubility in a solvent blend of tributyl phosphate, diethyl phthalate and cyclohexane (capsule solvents for preparing carbonless copy-paper) was >9% by weight. Thus the ligand is eminently suitable for encapsulation. The ligand is not volatile at 71 ° C. overnight.
Solubility in a solvent blend of tributyl phosphate, diethyl phthalate and cyclohexane (capsule solvents for preparing carbonless copy-paper) was 3% by weight. Thus the ligand is eminently suitable for encapsulation. The ligand is not volatile at 71 ° C. overnight.
*THE SOLUBILITY WAS DEEMED PREFERABLE IF IT WAS GREATER THAN 2% IN THE
FILL MIX AT ROOM TEMPERATURE FOR 3 DAYS. THE FILL MIX COMPRISED
TRIBUTYLPHOSPHATE (26.5%); DIETHYLPHTHALATE (17.6%); AND CYCLOHEXANE

[2] = Color (Hunter coordinates) of Ni complex, swabbed on Ni-coated receptor (CF) sheet; assay type: physicochemical; parameters: key to Hunter coordinate a / Hunter Coordinates a: Hunter a: +a red, -a green; key to Hunter coordinate b / Hunter Coordinates b: Hunter b: +b yellow, -b blue; conditions: for Chroma: C=(a^2 +b^2)^1/2; for Chroma / Hunter Coordinates L / Hunter Coordinates a / Hunter Coordinates b / Image Color: Ni(II) complex; for Chroma / Image Color: swab concn. 1% (Table 2); for Hunter Coordinates L / Hunter Coordinates a / Hunter Coordinates b: swab concn. 1%, 45°/0° reflectance, illuminant C (Table 2)
Description: In general, the colors of the complexes, as listed in Table 2 and Experiments 4, 6, and 7 below, were determined by preparing a 1% solution of the color-former or mixture of color-formers in an appropriate solvent. Unless otherwise indicated, the solvent was composed of a mixture of tributyl phosphate (26.5%), diethyl phthalate (17.6%), and cyclohexane (55.9%). The images were formed by applying two stripes of the solution to a substrate coated with a Ni^2+ coated receptor sheet using a cotton tipped applicator swab. Rapid and complete development of the image was achieved by passing the sheet through a hot shoe adjusted to 102° C., making a revolution every 10 seconds. The visually observed colors were measured and recorded.
One method of color measurement is to determine the color's position in color space. One color space system is the Hunter System; see F. W. Billmeyer, Jr., and M. Saltzman, Principles of Color Technology; John Wiley & Sons; New York, N.Y.; Ch. 2 & 3, 1981. In this system three mutually perpendicular axes (L, a, and b) are needed to define a color. "L" (+z axis) represents the lightness or darkness of the image; "a" (x axis) represents the amount of red or green (+a is red, -a is green); and "b" (y axis) represents the amount of yellow or blue (+b is yellow, -b is blue). By measuring a material's L, a, and b values, the color of one sample can be compared with that of other samples. Another value used in the Hunter System is Chroma (C). Chroma is defined by the equation [C=(a^2 +b^2)^1/2 ] and represents the distance of the image coordinates from the origin. The greater the Chroma, the more intense the image. Chroma is used to compare images cf the same hue. Because the color of a sample is also dependent upon the color temperature of the illuminating source, the angle at which the sample is illuminated, the angle at which the illumination is reflected, and the angle of the retina illuminated, these all need to be specified. Many instruments have been developed to record these values. One such instrument is the HunterLab LabScan II. This instrument is capable of automatically determining the L, a, and b values for a given sample, and was used for the following examples.
The L, a, and b color coordinates of the more uniform stripe were measured for 45°/0° reflectance on a HunterLab LabScan II, secondary observer, using illuminant C. The observed (image) color and the Hunter coordinates for Ni^2+ complexes of the yellow color-formers of this invention are given in Table 2.
A 1% solution of the condensation product in the encapsulation fill mix was swabbed onto a carbonless paper CF sheet (sold by the 3M Co. St. Paul, Minn.) with a cotton swab. The reflectance spectra had Hunter coordinates of: […]

Compound	Dye Solubility ([1]; 4320 min) [%]	Chroma [2]	Hunter Coordinates L [2]	Hunter Coordinates a [2]	Hunter Coordinates b [2]	color of nickel / transition metal coordination compound (in words) ([2]; description)	Chroma (in words) ([2]; nickel complex, description)	Image Color [2]	Dye Solubility ([1]; fill mix tributylphosphate (26.5%), diethylphthalate (17.6%), cyclohexane (55.9%), room temperature, 3 days (Table 2)) [%]
CC(C)(C)c1cc(C=NN=C(N)C(N)=NN=Cc2cc(C(C)(C)C)c(O)c(C(C)(C)C)c2)cc(C(C)(C)C)c1O [Compound 2, Ethanediimidic acid bis[(4-hydroxy-3,5-di-t-butylphenylmethylene)hydrazide]]	> 2.0	19.2	90.0	-8.0	17.6	much weaker	lower Chroma		
COc1cccc(C=NN=C(N)C(N)=NN=Cc2cccc(OC)c2O)c1O [Compound 10, Ethanediimidic acid bis[(2-hydroxy-3-methoxyphenylmethylene)hydrazide]]	< 2.0	36.2	86.4	-11.1	34.5			Yellow	
CCOC(=O)CC(C)=NN=C(N)C(N)=NN=C(C)CC(=O)OCC [Compound 7]	> 2.0	15.4	89.4	-5.8	14.3				
NC(=NN=Cc1cc([N+](=O)[O-])ccc1O)C(N)=NN=Cc1cc([N+](=O)[O-])ccc1O [Compound 4, Ethanediimidic acid bis[(2-hydroxy-5-nitrophenylmethylene)hydrazide]]		40.1	83.9	-9.7	38.9			Yellow	< 2.0
CC(=NN=C(N)C(N)=NN=C(C)c1ccccc1O)c1ccccc1O [Compound 6, Ethanediimidic acid bis[(2-hydroxyphenyl-methyl-methylene)hydrazide]]	< 2.0	20.1	48.3	-5.3	19.4	yellow		Yellow	
CCOc1cccc(C=NN=C(N)C(N)=NN=Cc2cccc(OCC)c2O)c1O [Compound 11, Ethanediimidic acid bis[(2-hydroxy-3-ethoxyphenylmethylene)hydrazide]]	< 2.0	39.3	88.4	-15.2	36.2			Yellow	
NC(=NN=Cc1cc(Br)ccc1O)C(N)=NN=Cc1cc(Br)ccc1O [Compound 3, Ethanediimidic acid bis[(2-hydroxy-5-bromophenylmethylene)hydrazide]]	< 2.0	41.1	81.9	-7.5	40.5			Yellow	
NC(=NN=Cc1c(O)ccc2ccccc12)C(N)=NN=Cc1c(O)ccc2ccccc12 [Compound 17, Ethanediimidic acid bis[(2-hydroxy-1-naphthylmethylene)hydrazide]]	< 2.0	28.5	86.6	-6.5	27.8			Yellow	
CCN(CC)c1ccc(C=NN=C(N)C(N)=NN=Cc2ccc(N(CC)CC)cc2O)c(O)c1 [Compound 5, Ethanediimidic acid bis[(2-hydroxy-4-diethylaminophenylmethylene)hydrazide]]	< 2.0	41.4	80.9	-5.2	41.0			Yellow	
NC(=NN=C(c1ccccc1)c1ccc(O)cc1O)C(N)=NN=C(c1ccccc1)c1ccc(O)cc1O [Compound 8, Ethanediimidic acid bis[(2,4-dihydroxyphenyl-phenyl-methylene)hydrazide]]	< 2.0	18.0	88.0	-6.0	17.0				
